The text below walks through data of patent US20150359854A1 (HUMAN MATRIX SCIENCES, LLC, priority 2012, published 2015).

Entries after “also recorded” stand apart in the source; their conditions may differ.

Test [1] relates to human aortic SMCs (AoSMCs). The experiment in a line: Immunocytochemistry and morphometry of elastic fibers in AoSMC cultures. It counts as cell-based. Particulars: for effect of inhibitor on elastogenic effects of insulin (immunostained elastic fibers, [3H]-valine-labeled insoluble elastin): 2% FBS; for effect of inhibitor on elastogenic effects of IGF-1: 10 nmol/L IGF-1, parallel AoSMC cultures. An excerpt: Human aortic SMCs (AoSMCs) were propagated from small fragments of aortic media collected from autopsy. Guidelines for the protection of human subjects of the US Department of Health and Human Services and of the Declaration of Helsinki were followed in obtaining tissues for this investigation. Cells migrating from the cultured explants of aortic media were routinely passaged (up to three times) via trypsinization using 0.2% trypsin-0.02% EDTA, and were maintained in DMEM supplemented with 5% FBS and 1% antibiotic-antimycotic mix. The second and third passages of cells that migrated from the original explants of aortic media were routinely probed with antibodies recognizing the SMC-specific α-actin to monitor the preservation of the SMC phenotype. All cells were initially plated at 100,000 cells per dish for immediate confluency so they would begin extracellular matrix production. The cell cultures committed to particular experiments were then transferred to DMEM containing either 2% FBS or to serum-free medium before initiation of particular treatments.
At the end of treatments, confluent cultures of AoSMCs were fixed in cold 100% methanol at −20° C. for 30 minutes, and blocked with 1% normal goat serum for 1 hour. The cultures were then incubated for 1 hour with 10 μg/mL polyclonal antibodies to tropoelastin and/or with 10 μg/mL monoclonal antibody to SMC-specific α-actin. All cultures were then incubated for another hour with the respective fluorescein-conjugated secondary antibodies (fluorescein-conjugated goat anti-rabbit or anti-mouse). Nuclei were counterstained with red-fluorescent propidium iodide or blue-fluorescent DAPI. The cultures were then mounted in ethanol and examined using a microscope (Eclipse E1000; Nikon Instruments, Inc., Melville, N.Y.) attached to a cooled CCD camera (Retiga EX; QImaging Corp., Vancouver, BC, Canada) and a computer-generated morphometric analysis system (Image-Pro Plus software; Media Cybernetics, Inc., Bethesda, Md.). In each analyzed group, 50 low-power fields from three separate cultures were analyzed, and the areas occupied by immunodetectable elastic fibers were expressed as a percentage of the entire analyzed field.

The next test relates to tropoelastin mRNA. The test is described as follows: RT-PCR assay of tropoelastin mRNA. It counts as cell-based, human. The conditions noted are these: 10 nmol/L insulin; for effect of inhibitor on insulin-induced up-regulation of tropoelastin mRNA: pretreated 30 minutes and maintained with inhibitor. As for the experimental part: At the end of the treatments, total RNA was extracted from quadruplicate cultures in each experimental group using the RNEASY® (RNA isolation) Mini Kit. One microgram total RNA from each sample was added to one-step RT-PCR (One-Step RT-PCR Kit; Qiagen, Inc.). The reactions were set up in a total volume of 25 μL. The reverse transcription step was performed for elastin and 18S ribosomal RNA reactions at 50° C. for 30 minutes, followed by 15 minutes at 95° C. The elastin PCR reaction using sense primer 5′[…]-3′ (SEQ ID NO 1) and antisense primer 5′[…]3′ (SEQ ID NO 2). The products were analyzed using ethidium bromide staining and densitometry-based image analysis using an optical system (Gel Doc 1000; Bio-Rad Laboratories, Inc., Hercules, Calif.). The amount of tropoelastin mRNA was standardized relative to the amount of 18S ribosomal RNA and expressed as percentage of control values.

Another test has as its system S-Gal/EBP. The experiment in a line: Association of tropoelastin with S-Gal/EBP chaperone (Western blot, co-immunoprecipitation, double immunostaining). The class given is cell-based, human. How it is done:
Cultures fixed for 30 minutes in cold 100% methanol were then blocked with 1% glycine for 15 minutes, followed by 2% bovine serum albumin with 0.1% Triton X-100 for another hour at room temperature. They were finally exposed for 1 hour to the mixture of 5 μg/mL polyclonal anti-S-Gal/EBP and 5 μg/mL monoclonal anti-tropoelastin antibodies. All cultures were then incubated for another hour with the mixture of fluorescein-conjugated and rhodamine-conjugated secondary antibodies. Nuclei were counterstained with DAPI. At the end of all treatments, cells from quadruplicate cultures in each experimental group were lysed using NP40 cell lysis buffer (Invitrogen Corp.). Thirty micrograms of protein extracts from each sample was suspended in standard sample buffer, resolved on 4% to 12% gradient SDS-PAGE gels, transferred to nitrocellulose membranes, and subjected to Western blotting using antibodies. At the end of indicated treatments, the cultured cells were lysed as described, and 300 μL aliquots of cell extracts containing […] were incubated at 4° C. for 3 hours with the aliquots of protein G bound DYNABEADS® (Invitrogen Corp.) that were conjugated with either rabbit polyclonal anti-tropoelastin, goat polyclonal anti-Glut10, or rabbit polyclonal anti-S-Gal antibodies. The beads carrying the final immunoprecipitation products were then washed with PBS, resuspended in sample buffer, and boiled for 5 minutes. The released proteins were then resolved on SDS-PAGE gel and subjected to Western blotting using indicated antibodies.
A general note: In western blotting, separated proteins are transferred to a membrane and probed.

A further test deals with FoxO1. The experiment in a line: FoxO1 binding to elastin gene promoter DNA probe (FRE) on DYNABEADS
The class given is cell-based, human. The conditions noted are these: AoSMCs treated 30 minutes with 10 nmol/L insulin, or preincubated with LY294002. How it is done: Cells were then scraped, and their nuclear extracts were pre-pared using an isolation kit (Active Motif, Inc.). […] The equal molar amounts of both single-stranded DNA oligonucleotides were annealed in Tris-EDTA buffer (10 mmol/L Tris-HCl, 1 mmol/L EDTA (pH 8.0)) to form the double-stranded DNA probe. […] All preparations were subsequently incubated for 2 hours in 200 μL binding buffer (50 mmol/L KCl, 10% glycerol, 20 mmol/L HEPES (pH 7.9), 1 mmol/L MgCl2, 1 mmol/L DTT, 0.1 μg poly(DI-DC) (polydeoxyinosinic-deoxycytidylic), and proteinase inhibitors). After binding, the beads were washed four times in the same binding buffer, without poly(DI-DC). The bound proteins were resolved using 8% SDS-PAGE and probed using Western blotting with the anti-FoxO1 monoclonal antibody.

For the next test, the system named is tropoelastin. The test is described as follows: Metabolically labeled tropoelastin in cell extracts and conditioned media (secretion). It counts as cell-based, human. The conditions noted are these: 1-hour preincubation with LY294002, 10 nmol/L insulin. How it is done: Cells were plated in 35-mm dishes at a density of 100,000 cells per dish and were grown to confluency. Two microcuries [3H]-valine per milliliter fresh medium supplemented with 2% FBS was added 2 hours before the indicated treatments. At the end of each experiment, the conditioned medium was collected and subjected to immunoprecipitation using anti-tropoelastin antibody. The cell layers were washed with PBS and incubated using radioimmunoprecipitation lysis buffer for 10 minutes on ice. After centrifugation, the supernatants were collected and subjected to immunoprecipitation using anti-tropoelastin antibody. […] Final results (counts per minute) reflecting the total amount of [3H]-valine-labeled insoluble elastin in individual cultures were normalized per their DNA contents (assessed using the Qiagen […] isolation) Tissue Kit) and expressed as percentage of control values. At the end of all treatments, cells from quadruplicate cultures in each experimental group were lysed using NP40 cell lysis buffer (Invitrogen Corp.). Thirty micrograms of protein extracts from each sample was suspended in standard sample buffer, resolved on 4% to 12% gradient SDS-PAGE gels, transferred to nitrocellulose membranes, and subjected to Western blotting using antibodies. At the end of indicated treatments, the cultured cells were lysed as described, and 300 μL aliquots of cell extracts containing […] were incubated at 4° C. for 3 hours with the aliquots of protein G bound DYNABEADS® (Invitrogen Corp.) that were conjugated with either rabbit polyclonal anti-tropoelastin, goat polyclonal anti-Glut10, or rabbit polyclonal anti-S-Gal antibodies. The beads carrying the final immunoprecipitation products were then washed with PBS, resuspended in sample buffer, and boiled for 5 minutes. The released proteins were then resolved on SDS-PAGE gel and subjected to Western blotting using indicated antibodies.

The mark [2] stands for this setting: 24-hour AoSMC cultures, 10 nmol/L insulin.
Setting [3] is: 10 nmol/L IGF-1, 24-hour AoSMC cultures.

Consider `CC(C)(C)c1cc(C=C(C#N)C#N)cc(Br)c1O` [AG1024], for which the “effect of inhibitor on elastogenic effects of insulin (immunostained elastic fibers, [3H]-valine-labeled insoluble elastin)” value in test [1] (setting [2]) was “eliminated the elastogenic effects”. Also, the “effect of inhibitor on insulin-induced up-regulation of tropoelastin mRNA” value (“effect of inhibitor … of tropoelastin mRNA” below) in the test on tropoelastin mRNA is reported as “abrogated”.
For `O=c1cc(N2CCOCC2)oc2c(-c3ccccc3)cccc12` [LY294002], the “insulin-induced tropoelastin/S-Gal/EBP co-localization in cells preincubated with inhibitor” value with S-Gal/EBP (LY294002 preincubation (data not shown)) is given as “could not induce such tropoelastin/S-Gal/EBP co-localization”. Moreover, the “effect of PI3K inhibitor on insulin-induced S-Gal/EBP coimmunoprecipitation” value with S-Gal/EBP (pretreated 30 minutes with PI3K inhibitor) was “could not be induced; also recorded: could not induce the same effect”. Also, the “effect of inhibitor on elastogenic effects of IGF-1” value in test [1] was “abolished the elastogenic effects; also recorded: also eliminated”. Besides, the “effect of inhibitor on elastogenic effects of insulin (immunostained elastic fibers, [3H]-valine-labeled insoluble elastin)” value in test [1] (setting [2]) is “eliminated the elastogenic effects”. For the same molecule, in the test with FoxO1, the “binding of FoxO1 from nuclear extracts to elastin promoter FRE DNA probe” value was “bound abundant FoxO1 proteins”. Besides, the “effect of inhibitor … of tropoelastin mRNA” value in the test with tropoelastin mRNA was “abrogated”. Besides, in the test with tropoelastin, the “effect of PI3K inhibition on insulin-induced changes in tropoelastin levels” value is “could not be observed”.
Consider `OC[C@H]1O[C@@H](n2cnc3cc(Cl)c(Cl)cc32)[C@H](O)[C@@H]1O` [dichloro-benzimidazole riboside, dichlorobenzimidazole riboside], for which the “effect of transcription inhibitor on insulin-induced up-regulation of tropoelastin mRNA” value with tropoelastin mRNA (pretreatment with 50 μmol/L inhibitor) is “completely abolished”.
In the case of `COc1ccc(CNc2nc(N(CCO)CCO)nc3c2ncn3C(C)C)cc1` [CVT313], in test [1] (setting [3]), the “effect of cdk-2 inhibition on elastogenic effect of IGF-1” value is on record as “abolished the final elastogenic effect”. In addition, the “effect of cdk-2 inhibition on elastogenic effect of insulin” value in test [1] (10 nmol/L insulin, 24-hour AoSMC cultures) is reported as “did not diminish the elastogenic effect; also recorded: still exhibited heightened deposition of elastic fibers”.
With `COc1cc([C@@H]2c3cc4c(cc3[C@H](O)[C@H]3COC(=O)[C@@H]23)OCO4)cc(OC)c1OC` [picropodophyllin], the “effect of inhibitor on elastogenic effects of IGF-1” value in test [1] is listed as “also eliminated”. Also, the “effect of inhibitor … of tropoelastin mRNA” value in the test with tropoelastin mRNA is “did not inhibit”.
Take IGF-1: the “elastogenic effect of IGF-1” value in test [1] (setting [3]) is on record as “elastogenic effects”.
